Experimental data reported in patent publication US20260167829A1, “USES OF DIAZIRINES” (Nanyang Technological University, priority 2022, published 2026).
“Also recorded” adds a separate entry of the source. One block for each molecule: values may come before it.

Tests used:
[1] = system: 3T3 fibroblasts or HeLa cell lines; assay: In vitro biocompatibility Alamar Blue assay; type: cell-based; settings: 48 hours of incubation; all concentrations (0.01-1 mM)
Method: Cells seeded in wells (5 replicates for each group) with 100 μl DMEM media (10% FBS, 1% antibiotic). Incubated for 24 and 48 h, in a 96-well plate, 10000 cells/well, using 3T3 fibroblasts or HeLa cell lines. After 24 h, DMEM media replaced with 100 μl DMEM with dissolved test compounds (Test compounds dissolved in DMEM media to obtain final conc. of 1, 0.5, 0.1, 0.01 mM). After 24 hours of incubation, 10 μl resazurin solution (0.015%) dissolved in PBS was added to the wells followed by incubation for 3 hours. Readings taken post 24 hours and 48 hours of sample addition. (Ex-570 nm, Em-590 nm), Controls: Blank media without cells, Media with cells, Readings for (Blank media without cells) subtracted from all groups, Readings normalized against (media with cells group—100%)

[2] = Photorheometry of CaproGlu binary formulations (365 nm UVA, 10 J·cm^−2); type: physicochemical; settings: neat component of Table 3; steady state viscosity, shear rate 10 sec^−1
Method: Rheometry was carried out on an Anton Paar MCR 102 rheometer (Anton Paar, Singapore) with a custom photocuring setup as described previously (Djordjevic, I. et al., Biomaterials 2020, 260, 120215). A PP10 parallel plate stainless steel probe was used, with a 0.2 mm measuring gap. Steady State Viscosity was measured first (shear rate 10 sec^−1), followed by a dynamic oscillatory strain measurement during photocuring (UV ON at 30 seconds, off at 2 minutes 10 seconds, 1% shear, frequency 10 Hz, amplitude 1%), then an Amplitude Sweep (shear 1-1000-%, angular frequency 10 rad-sec^−1). In reporting of G′ and G″, a smoothing function was applied. The UV lamp used was a Thor Labs 365 nm SOLIS High-Power LED connected to a DC2200 LED Driver set to constant current mode. […]
Covalent crosslinking was monitored via complex shear modulus (G*), which was measured on a custom photorheometer fitted with a narrow-band 365 nm UV diode and normal-force load cell. […] Dynamic viscosity, G′ (storage modulus), G″ (loss modulus), and normal force (caused by expansion/contraction of polymer matrix) were continually monitored and subsequently analysed for yield stress/strain with an amplitude sweep. Functional groups were qualitatively assessed before and after curing via ATR-FTIR spectroscopy to observe consumption. […]

[3] = Stability of PEGDA/PTHT mixtures with photoinitiator under indoor light; type: physicochemical; settings: PEGDA+PTHT 2:1 binary mixture, 1 mol % initiator, no solvent
Method: Polyethylene glycol diacrylate (Mw˜575 Da), referred to as “PEGDA” further in text is used in all the experiments. PEGDA/PTHT samples are prepared by magnetic stirring of PEGDA and PTHT polymer blend (2:1 molar ratio) with diazirine photoinitiators (1 mol % DzOH or 1 mol % CG relative to the total number of mols of PEGDA in each sample). Samples with standard TPO photoinitiator (1 mol %) are used as controls. The mixing of compounds (PEGDA+PTHT) in binary mixture with photoinitiators (DzOH, CG and TPO) is completed without any solvent.

[4] = UV/VIS spectroscopy, molar absorption; type: physicochemical
Method: The solution is then added to UV/VIS quartz tube with a path length of 1 cm. The background is normalized to chloroform. The samples are tested in the wavelength range of 200 to 800 nm at a medium scan rate of 2 nm, and a slit width of 0.5 nm. Data are collected in absorbance values (A) against wavelength (nm).

SMILES: OCc1ccc(C2(C(F)(F)F)N=N2)cc1 [DzOH, 4-[3-(Trifluoromethyl)-3H-diazirin-3-yl]benzyl alcohol]
Cell viability [1]: not significantly different from control

SMILES: O=C(CCS)OCC(COC(=O)CCS)(COC(=O)CCS)COC(=O)CCS [PTHT, pentaerythritol tetrakis 3-mercaptopropionate]
viscosity [2]: [drawing 17] PTHT, Mw = 488.66 g · mol^-1, viscosity = 667 ± 49 mPa · s mPa·s

molar absorption coefficient ([4]; @ 381 nm): 520 cm^−1M^−1
SMILES: Cc1cc(C)c(C(=O)P(=O)(c2ccccc2)c2ccccc2)c(C)c1 [TPO, Diphenyl(2,4,6-trimethylbenzoyl)phosphine oxide]
stability under indoor lighting [3]: activated under indoor light; also recorded: unstable and prematurely crosslinked under fluorescent lights and white LED emitters

absorbance above 400 nm ([4]; previous UV-Vis studies): does not have an absorbance above 400 nm
SMILES: O=C(O)c1ccc(C2(C(F)(F)F)N=N2)cc1 [DzCOOH, 4-[3-(Trifluoromethyl)-3H-diazirin-3-yl]benzoic acid]
